# How the values were obtained:
# α-adrenergic receptor [1] = experiment: α-adrenergic receptor blocking activity in vivo, anesthetized dog, phenylephrine agonist; settings: iv
# Method: (§1) α-Adrenergic receptor blocking activity is determined in vivo by performing cumulative dose-response experiments in the anesthetized dog using phenylephrine as the agonist. The increase in diastolic blood pressure produced by phenylephrine is determined in the absence and again in the presence of logarithmically increasing doses of the test compound. Relative antagonistic potency is expressed as DR10. DR10 is defined as the negative logarithm of the dose of the antagonist which increased by 10 times the dose of agonist necessary to produce 50% of the maximal attainable response.
# guinea pig ileum = experiment: direct spasmolytic activity in vitro, isolated guinea pig ileum, barium chloride agonist; assay type: cell-based
# Method: α-Adrenergic receptor blocking activity is determined in vitro by performing cumulative dose-response experiments in the isolated rabbit aortic strip preparation using norepinephrine as the agonist. The contractile response of the rabbit strip preparation in the presence of logarithmically increasing concentrations of the compounds being tested are expressed as percent of the maximal attainable […]. Relative antagonistic potency is expressed as a pA2 value. […] Direct spasmolytic activity is determined in vitro by performing cumulative dose response experiments in the isolated guinea pig ileum preparation using barium chloride as the agonist. The contractile response of the guinea pig ileum preparation in the presence of logarithmically increasing concentrations of the compounds being tested are expressed as percent of the maximal attainable response. Relative antagonistic potency is expressed as a pA2 value, as defined above.
# β-adrenergic receptor = target: T1, β-adrenergic receptor (Cavia porcellus, UniProt H0W3H1); experiment: β-adrenergic receptor blocking activity in vitro, isolated guinea pig atria, isoproterenol agonist; assay type: cell-based; settings: for Kb: read-out: pA2 β (converted)
# T1 construct: isolated guinea pig atria preparation; from tissue; host or cells: isolated guinea pig atria
# Method: (§2) α-Adrenergic receptor blocking activity is determined in vitro by performing cumulative dose-response experiments in the isolated rabbit aortic strip preparation using norepinephrine as the agonist. The contractile response of the rabbit strip preparation in the presence of logarithmically increasing concentrations of the compounds being tested are expressed as percent of the maximal attainable […]. Relative antagonistic potency is expressed as a pA2 value.
# β-Adrenergic receptor blocking activity is determined in vitro by performing cumulative dose-response experiments in the isolated guinea pig atria preparation using isoproterenol as the agonist. The response (increase in rate) of the guinea pig atria preparation in the presence of logarithmically increasing concentrations of the compounds being tested are expressed as percent of the maximal attainable response. Relative antagonistic potency is expressed as a pA2 value, as defined above.
# α-adrenergic receptor [2] = experiment: α-adrenergic receptor blocking activity in vitro, isolated rabbit aortic strip, norepinephrine agonist; assay type: cell-based
# Method: as §2
# [3] = test system: spontaneously hypertensive rats (SHR); experiment: antihypertensive activity in spontaneously hypertensive rats, systolic blood pressure; assay type: in vivo, rat; settings: 50 mg/kg per os
# Method: Antihypertensive activity is determined in spontaneously hypertensive rats (SHR) of the Okomoto-Aoki strain. Systolic blood pressure of the SHR is measured from the caudal artery by means of an indirect method utilizing a photocell transducer/tail cuff occluder system. Time response relationships are determined for each compound following an oral dose of 50 mg/kg. Data are expressed as mm of Hg decrease from control values. Statistical significance is determined using a 2 tailed "t" test comparing drug treatment response values to those obtained from concurrent vehicle treated animals.
# [4] = test system: β-adrenergic receptor (β2); experiment: β-adrenergic receptor blocking activity in vivo, isoproterenol agonist, decrease in diastolic blood pressure (β2); settings: anesthetized dog, iv
# Method: as §1, with “response. […] Two responses, increase in cardiac rate (β1) and decrease in diastolic blood pressure (β2) are measured.” for “response.”
# [5] = test system: β-adrenergic receptor (β1); experiment: β-adrenergic receptor blocking activity in vivo, isoproterenol agonist, increase in cardiac rate (β1); settings: anesthetized dog, iv
# Method: as §1, with “response. […] Two responses, increase in cardiac rate (β1) and decrease in diastolic blood pressure (β2) are measured.” for “response.”
# T1 sequence (H0W3H1 1-470): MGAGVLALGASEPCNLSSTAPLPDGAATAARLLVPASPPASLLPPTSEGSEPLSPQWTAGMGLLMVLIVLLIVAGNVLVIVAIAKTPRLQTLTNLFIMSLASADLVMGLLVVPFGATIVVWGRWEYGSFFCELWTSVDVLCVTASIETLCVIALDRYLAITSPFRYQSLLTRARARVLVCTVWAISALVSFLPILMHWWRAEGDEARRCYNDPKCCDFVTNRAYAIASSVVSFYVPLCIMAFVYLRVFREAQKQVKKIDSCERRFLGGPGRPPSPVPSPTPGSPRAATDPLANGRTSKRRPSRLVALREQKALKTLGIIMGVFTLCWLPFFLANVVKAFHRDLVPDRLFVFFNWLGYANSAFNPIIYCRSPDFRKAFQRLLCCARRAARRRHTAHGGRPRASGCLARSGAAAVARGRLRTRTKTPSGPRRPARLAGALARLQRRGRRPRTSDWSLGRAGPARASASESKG
smiles,measurement,setting,value
"Cc1ccc(N(CC2=NCCN2)c2cccc(O)c2)cc1 [phentolamine, reference compound]",DR10 (α),α-adrenergic receptor [1],2.65 mg/kg iv
"Cl.NC(=O)c1cc(C(O)CN2CCN(c3cccc(C(F)(F)F)c3)CC2)ccc1O (stereo not drawn) [Compound 3, 2-hydroxy-5-[1-hydroxy-2-[4-[3-(trifluoromethyl)phenyl]-1-piperazinyl]ethyl]benzamide monohydrochloride]",pA2 BaCl2,guinea pig ileum,5.74
same,Kb,β-adrenergic receptor,126 nM
same,pA2 α,α-adrenergic receptor [2],6.33
"Cl.NC(=O)c1cc(C(O)CN2CCN(c3ccc(Cl)cc3)CC2)ccc1O.O (stereo not drawn) [Compound 5, 5-[2-[4-(4-chlorophenyl)-1-piperazinyl]-1-hydroxyethyl]-2-hydroxybenzamide monohydrochloride, monohydrate]",pA2 BaCl2,guinea pig ileum,4.58
same,Fall in Blood Pressure After: 1 hour,[3],49 mm Hg
same,Fall in Blood Pressure After: 4 hours,[3],56 mm Hg
same,Kb,β-adrenergic receptor,676 nM
same,pA2 α,α-adrenergic receptor [2],6.87
"Cl.NC(=O)c1cc(C(O)CN2CCN(c3ccccc3)CC2)ccc1O.O (stereo not drawn) [Compound 6, 2-hydroxy-5-[1-hydroxy-2-(4-phenyl-1-piperazinyl)ethyl]benzamide monohydrochloride hydrate]",pA2 BaCl2,guinea pig ileum,4.19
same,pA2 β,β-adrenergic receptor,stimulant
same,pA2 α,α-adrenergic receptor [2],7.04
"CNC(=O)c1cc(C(O)CN2CCN(c3ccccc3OC)CC2)ccc1O.Cl.O (stereo not drawn) [Compound 10, 2-hydroxy-5-[1-hydroxy-2-[4-(2-methoxyphenyl)-1-piperazinyl]ethyl]-N-methylbenzamide monohydrochloride monohydrate]",pA2 BaCl2,guinea pig ileum,5.02
same,Fall in Blood Pressure After: 1 hour,[3],44 mm Hg
same,Fall in Blood Pressure After: 4 hours,[3],52 mm Hg
same,pA2 β,β-adrenergic receptor,stimulant
same,pA2 α,α-adrenergic receptor [2],7.95
"COc1ccc(N2CCN(CC(O)c3ccc(O)c(C(N)=O)c3)CC2)cc1.Cl.Cl (stereo not drawn) [Compound 4, 2-hydroxy-5-[1-hydroxy-2-[4-(4-methoxyphenyl)-1-piperazinyl]ethyl]benzamide dihydrochloride]",pA2 BaCl2,guinea pig ileum,< 4.28
same,Kb,β-adrenergic receptor,1450 nM
same,pA2 α,α-adrenergic receptor [2],6.13
"COc1ccccc1N1CCN(CC(O)c2ccc(O)c(C(N)=O)c2)CC1.Cl (stereo not drawn) [Compound 7, 2-hydroxy-5-[1-hydroxy-2-[4-(2-methoxyphenyl)-1-piperazinyl]ethyl]benzamide monohydrochloride]",pA2 BaCl2,guinea pig ileum,4.87
same,Fall in Blood Pressure After: 1 hour,[3],45 mm Hg
same,Fall in Blood Pressure After: 4 hours,[3],35 mm Hg
same,Kb,β-adrenergic receptor,363 nM
same,pA2 α,α-adrenergic receptor [2],7.42
"COC(=O)c1cc(C(O)CN2CCN(c3ccccc3C)CC2)ccc1O.Cl (stereo not drawn) [Compound 1, methyl 2-hydroxy-5-[1-hydroxy-2-[4-(2-methylphenyl)-1-piperazinyl]ethyl]benzoate hydrochloride]",pA2 BaCl2,guinea pig ileum,6.06
same,Kb,β-adrenergic receptor,162 nM
same,pA2 α,α-adrenergic receptor [2],7.45
"Cc1ccccc1N1CCN(CC(O)c2ccc(O)c(C(=O)NCC(C)(C)C)c2)CC1.Cl (stereo not drawn) [Compound 11, N-(2,2-dimethylpropyl)-2-hydroxy-5-[1-hydroxy-2-[4-(2-methylphenyl)-1-piperazinyl]ethyl]benzamide monohydrochloride]",pA2 BaCl2,guinea pig ileum,6.65
same,Fall in Blood Pressure After: 1 hour,[3],41 mm Hg
same,Fall in Blood Pressure After: 4 hours,[3],32 mm Hg
same,Kb,β-adrenergic receptor,468 nM
same,pA2 α,α-adrenergic receptor [2],7.21
"Cc1ccccc1N1CCN(CC(O)c2ccc(O)c(-c3nnn[nH]3)c2)CC1.Cl.O (stereo not drawn) [Compound 14, α-(4-Hydroxy-3-1H-tetrazol-5-ylphenyl)-4-(2-methylphenyl)-1-piperazineethanol Monohydrochloride Monohydrate]",pA2 BaCl2,guinea pig ileum,< 4
same,Fall in Blood Pressure After: 1 hour,[3],48 mm Hg
same,Kb,β-adrenergic receptor,724 nM
same,pA2 α,α-adrenergic receptor [2],7.56
"Cc1ccccc1N1CCN(CC(O)c2ccc(O)c(C(N)=O)c2)CC1.Cl (stereo not drawn) [Compound 2, 2-hydroxy-5-[1-hydroxy-2-[4-(2-methylphenyl)-1-piperazinyl]ethyl]benzamide monohydrochloride]",pA2 BaCl2,guinea pig ileum,5.73
same,"DR10 (β2), decrease in diastolic blood pressure",[4],> 10 mg/kg iv
same,Fall in Blood Pressure After: 1 hour,[3],48 mm Hg
same,Fall in Blood Pressure After: 4 hours,[3],37 mm Hg
same,DR10 (α),α-adrenergic receptor [1],1.09 mg/kg iv
same,Kb,β-adrenergic receptor,200 nM
same,pA2 α,α-adrenergic receptor [2],7.57
same,"DR10 (β1), increase in cardiac rate",[5],15.3 mg/kg iv
"CC(CCc1ccccc1)NC(C)C(O)c1ccc(O)cc1 (stereo not drawn) [nylidrine, reference compound]",pA2 β,β-adrenergic receptor,stimulant
"COc1ccc(C(O)CN2CCN(c3ccccc3)CC2)cc1C(N)=O.Cl (stereo not drawn) [Compound 12, 5-[1-hydroxy-2-(4-phenyl-1-piperazinyl)ethyl]-2-methoxybenzamide monohydrochloride]",pA2 BaCl2,guinea pig ileum,4.19
same,Fall in Blood Pressure After: 1 hour,[3],33 mm Hg
same,Fall in Blood Pressure After: 4 hours,[3],25 mm Hg
same,Kb,β-adrenergic receptor,> 10000 nM
same,pA2 α,α-adrenergic receptor [2],6.54
"Cl.NC(=O)c1cc(C(O)CN2CCN(c3ccccn3)CC2)ccc1O.O (stereo not drawn) [Compound 8, 2-hydroxy-5-[1-hydroxy-2-[4-(2-pyridinyl)-1-piperazinyl]ethyl]benzamide monohydrochloride hydrate]",pA2 BaCl2,guinea pig ileum,3.90
same,Kb,β-adrenergic receptor,4270 nM
same,pA2 α,α-adrenergic receptor [2],6.08
"CNC(=O)c1cc(C(O)CN2CCN(c3ccc(OC)cc3)CC2)ccc1O.Cl.O (stereo not drawn) [Compound 9, 2-hydroxy-5-[1-hydroxy-2-[4-(4-methoxyphenyl)-1-piperazinyl]ethyl]-N-methylbenzamide monohydrochloride hydrate]",pA2 BaCl2,guinea pig ileum,4.82
same,Kb,β-adrenergic receptor,6760 nM
same,pA2 α,α-adrenergic receptor [2],5.47
"CCOc1ccc(C(O)CN2CCN(c3ccccc3)CC2)cc1C(N)=O.Cl (stereo not drawn) [Compound 13, 2-ethoxy-5-[1-hydroxy-2-(4-phenyl-1-piperazinyl)ethyl]benzamide monohydrochloride]",pA2 BaCl2,guinea pig ileum,4.67
same,Kb,β-adrenergic receptor,5370 nM
same,pA2 α,α-adrenergic receptor [2],6.27
